# Measured values taken from US10865191B2, “Heterocyclic compounds useful as modulators of TNF alpha” (BRISTOL-MYERS SQUIBB COMPANY, priority 2015, dated 2020).
# Target: TNFα (Homo sapiens, UniProt P01375)
# Assay: TNF induced HEK-Blue assay (NF-kB-driven secreted alkaline phosphatase reporter)
# Assay type: cell-based
# Details: TNFα 0.5 ng/mL, HEK-Blue-CD40L cells, 18 h; read-out: TNF induced HEK-Blue assay IC50 value
# Outline: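 HEK-Blue-CD40L cells (NF-kB-driven SEAP reporter), 20,000/well, added after 30 min pre-incubation of compound (0.004–25 μM final) with TNFα 0.5 ng/mL final at 37 °C; 18 h incubation. SEAP read with QUANTI-Blue at 620 nm; IC50 from 4-parameter logistic fit, normalized to unstimulated and stimulated DMSO controls.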
# TNFα, sequence (P01375 77-233 limits assumed): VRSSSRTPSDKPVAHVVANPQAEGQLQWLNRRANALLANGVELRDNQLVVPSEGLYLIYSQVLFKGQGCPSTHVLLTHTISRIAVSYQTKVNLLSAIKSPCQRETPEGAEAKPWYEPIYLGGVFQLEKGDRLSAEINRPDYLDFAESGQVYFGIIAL
row,Structure (SMILES),IC50 [µM]
1,"Cc1nc2ccc(-c3cnc(C(C)(C)O)nc3)cc2c(N[C@H](C)c2cc(C(C)(O)CO)ccc2F)c1Cl (mixture of isomers) [Example 403, 2-(3-((R)-1-((3-chloro-6-(2-(2-hydroxypropan-2-yl)pyrimidin-5-yl)-2-methylquinolin-4-yl)amino)ethyl)-4-fluorophenyl)propane-1,2-diol]",< 1
2,"Cc1nc2ccccc2c(N[C@H](C)c2cc(Br)ccc2F)c1Cl [Example 538, (R)—N-(1-(5-bromo-2-fluorophenyl)ethyl)-3-chloro-2-methylquinolin-4-amine]",1 to 10
3,"C[C@@H](Nc1c(Cl)cnc2ccccc12)c1cc(-c2cncs2)ccc1F [Example 542, (R)-3-chloro-N-(1-(2-fluoro-5-(thiazol-5-yl)phenyl)ethyl)quinolin-4-amine]",< 1

# Results, then the compound that gave them:
row,IC50 [µM],Structure (SMILES)
1,10 to 25,"C[C@@H](Nc1c(Cl)cnc2ccc(-c3cnc(C(C)(C)O)nc3)cc12)c1cc(-c2cc(C(=O)O)[nH]n2)ccc1F [Example 428, (R)-3-(3-(1-((3-chloro-6-(2-(2-hydroxypropan-2-yl)pyrimidin-5-yl)quinolin-4-yl)amino)ethyl)-4-fluorophenyl)-1H-pyrazole-5-carboxylic acid]"
2,1 to 10,"CCC(Nc1c(Cl)cnc2ccc(-c3cnc(C(C)(C)O)nc3)cc12)c1nc(C(=O)O)ccc1F (centres unmarked) [Example 128, 6-(1-((3-chloro-6-(2-(2-hydroxypropan-2-yl)pyrimidin-5-yl)quinolin-4-yl)amino)propyl)-5-fluoropicolinic acid]"
